Measured values published in patent publication US8658604B2, “Template-fixed beta-hairpin peptidomimetics with protease inhibitory activity” (Polyphor Ltd, priority 2005, dated 2014).
Where a SMILES comes first, the peptide text is derived from it.

Legend:
[1] = target: T1, Chymotrypsin, from human pancreas (Homo sapiens, UniProt P17538)
[2] = target: Coagulation Factor Xa, from uman plasma (Homo sapiens, UniProt P00742)
[3] = target: T2, Chymase, from human skin (Homo sapiens, UniProt P23946)
T2 sequence (P23946 22-247): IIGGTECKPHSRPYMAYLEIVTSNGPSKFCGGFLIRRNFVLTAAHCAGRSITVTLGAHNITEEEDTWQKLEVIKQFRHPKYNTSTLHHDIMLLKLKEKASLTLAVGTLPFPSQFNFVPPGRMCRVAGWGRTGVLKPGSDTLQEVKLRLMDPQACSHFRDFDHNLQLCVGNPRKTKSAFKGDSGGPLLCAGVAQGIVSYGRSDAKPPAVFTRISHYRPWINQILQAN

[4] = system: Tryptase, from human lung; assay: Enzymatic assay, tryptase; conditions: at 100 μM
[5] = system: HELA cells (Acc57); assay: Cytotoxicity assay (MTT reduction), HELA cells; assay type: cell-based; conditions: Hela cells
Procedure, shortened: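 HeLa cells were grown for 24 h, then exposed to peptides at 12.5, 25 and 50 μM in triplicate for 48 h at 37 °C. MTT reduction was read at 595 nm and growth % calculated relative to time-zero wells. LC50 interpolated by linear trend at −50% growth, GI50 at 50%.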

[6] = target: T3, Elastase from human neutrophils (Homo sapiens, UniProt P08246); assay: Enzymatic assay, elastase; conditions: Elastase IC50
T3 sequence (P08246 30-267): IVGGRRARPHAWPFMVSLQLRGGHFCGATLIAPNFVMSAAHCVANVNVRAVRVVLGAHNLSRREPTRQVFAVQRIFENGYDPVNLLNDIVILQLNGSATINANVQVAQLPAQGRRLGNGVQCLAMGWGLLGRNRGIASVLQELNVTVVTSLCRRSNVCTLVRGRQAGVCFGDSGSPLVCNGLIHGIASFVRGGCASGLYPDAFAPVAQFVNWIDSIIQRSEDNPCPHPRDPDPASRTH

[7] = target: T4, CathepsinG, from human neutrophils (Homo sapiens, UniProt P08311); assay: Enzymatic assay, cathepsin G; conditions: Cathepsin G IC50
T4 sequence (P08311 21-244): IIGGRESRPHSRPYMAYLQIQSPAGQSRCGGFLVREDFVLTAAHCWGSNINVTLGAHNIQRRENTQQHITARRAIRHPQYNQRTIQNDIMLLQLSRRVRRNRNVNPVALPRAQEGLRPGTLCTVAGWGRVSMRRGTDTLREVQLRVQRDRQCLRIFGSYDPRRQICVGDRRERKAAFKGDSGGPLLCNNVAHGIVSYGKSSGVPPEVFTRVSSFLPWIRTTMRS

[8] = target: Urokinase from human urine (Homo sapiens, UniProt P00749)
[9] = target: Trypsin, from human pancreas (Homo sapiens, UniProt P07477)
[10] = target: Thrombin, from Human Plasma (Homo sapiens, UniProt P00734)
[11] = system: human red blood cells (hRBC); assay: Hemolysis
[12] = assay type: in vitro ADME; conditions: 10 µM
Description: 405 μl of plasma/albumin solution were placed in a polypropylene (PP) tube and spiked with 45 μl of compound from a […] solution B, derived from 135 μl of PBS and 15 μl of 1 mM peptide in PBS, pH 7.4. 150 μl aliquots were transferred into individual wells of the 10 kDa filter plate (Millipore MAPPB 1010 Biomax membrane). For “0 minutes controls”: 270 μl of PBS were placed in a PP tube and 30 μl of stock solution B was added and vortexed. 150 μl of control solution were placed into one well of the filter plate and served as “filtered control”.
Further 150 μl of control solution were placed directly into a receiver well (reserved for filtrate) and served as “not-filtered control”. The entire plate including evaporation lid was incubated for 60 min at 37° C. Plasma samples (rat plasma: Harlan Sera lab UK, human plasma: Blutspendezentrum Zürich) were centrifuged at least for 2 h at 4300 rpm (3500 g) and 15° C. in order to yield 100 filtrate. For “serum albumin”-samples (freshly prepared human albumin: Sigma A-4327, rat albumin: Sigma A-6272, all at 40 mg/ml concentration in PBS) approximately 1 hour of centrifugation was sufficient. The filtrates in the receiver PP plate were analysed by LC/MS as follower follows: Column: Jupiter C18 (Phenomenex), mobile phases: (A) 0.1% formic acid in water and (B) acetonitrile, gradient: 5%-100% (B) in 2 minutes, electrospray ionization, MRM detection (triple quadrupole). The peak areas were determined and triplicate values were averaged. The binding was expressed in percent of the (filtered and not-filtered time point 0 min) control 1 and 2 by: 100−(100×T60/T0). The average from these values was then calculated.

[13] = target: T1, Chymotrypsin, from human pancreas; assay: Enzymatic assay, chymotrypsin
[14] = target: T4, CathepsinG, from human neutrophils

T1 sequence (P17538 19-263): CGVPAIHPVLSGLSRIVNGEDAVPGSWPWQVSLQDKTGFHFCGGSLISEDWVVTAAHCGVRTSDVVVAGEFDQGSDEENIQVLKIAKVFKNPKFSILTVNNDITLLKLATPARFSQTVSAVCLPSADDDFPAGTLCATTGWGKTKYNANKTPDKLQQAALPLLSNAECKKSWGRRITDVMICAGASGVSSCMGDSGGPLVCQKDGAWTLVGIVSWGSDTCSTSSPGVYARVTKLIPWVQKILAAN
Sequence of Coagulation Factor Xa, from uman plasma (P00742 235-488 limits assumed): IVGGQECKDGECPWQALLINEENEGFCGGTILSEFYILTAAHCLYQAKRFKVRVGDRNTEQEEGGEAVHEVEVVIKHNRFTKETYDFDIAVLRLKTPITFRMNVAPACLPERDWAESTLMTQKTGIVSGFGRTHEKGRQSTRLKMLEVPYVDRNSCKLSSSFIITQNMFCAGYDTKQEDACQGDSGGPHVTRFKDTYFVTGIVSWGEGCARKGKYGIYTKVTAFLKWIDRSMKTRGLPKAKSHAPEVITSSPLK
Sequence of Coagulation Factor Xa, from uman plasma (P00742 41-179 limits assumed): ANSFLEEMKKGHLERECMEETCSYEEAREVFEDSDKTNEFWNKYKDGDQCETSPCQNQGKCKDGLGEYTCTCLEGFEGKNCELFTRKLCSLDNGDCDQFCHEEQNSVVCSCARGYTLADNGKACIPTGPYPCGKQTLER

IC50 [13]	Cathepsin G at 100 μM % [14]	SMILES	Chymotrypsin at 100 μM % [1]	FXa at 100 μM % [2]	Chymase at 100 μM % [3]	Tryptase at 100 μM % [4]	Cytotoxicity LC50/GI50 Hela cells [5]	IC50 [6]	IC50 [7]	Urokinase at 100 μM % [8]	Trypsin at 100 μM % [9]	Thrombin at 100 μM % [10]	Hemolysis at 100 μM % [11]	Stability human Plasma t1/2 [12]	Stability rat Plasma t1/2 [12]
–	–	CC[C@H](C)[C@@H]1NC(=O)[C@@H]2CCCN2C(=O)[C@@H]2CCCN2C(=O)[C@H](CC(=O)O)NC(=O)[C@H](CO)NC(=O)[C@H](CCCCN)NC(=O)[C@H]([C@@H](C)O)NC(=O)[C@@H]2CSSC[C@H](NC1=O)C(=O)N[C@@H](CCCNC(=N)N)C(=O)N1CCC[C@@H]1C(=O)N1CCC[C@H]1C(=O)N[C@@H](C1CCCCC1)C(=O)N2 [Ex. 12] (HELM PEPTIDE1{[O=C([C@@H](N[*:1])C1CCCCC1)[*:2]].C.T.K.S.D.P.P.I.C.R.[dP].P}$PEPTIDE1,PEPTIDE1,2:R3-10:R3|PEPTIDE1,PEPTIDE1,1:R1-13:R2$$$V2.0)	28%	5%	12%	59.3%	59300 nM	37000 nM	90 nM	12%	97%	11%	–	–	–
–	–	CCCC[C@@H]1NC(=O)[C@H]([C@@H](C)O)NC(=O)[C@@H]2CSSC[C@H](NC(=O)[C@H]([C@@H](C)CC)NC(=O)[C@@H]3CCCN3C(=O)[C@@H]3CCCN3C(=O)[C@H](CC(=O)O)NC(=O)[C@H](CO)NC1=O)C(=O)N[C@@H](CCCNC(=N)N)C(=O)N1CCC[C@@H]1C(=O)N1CCC[C@H]1C(=O)N[C@@H]([C@@H](C)CC)C(=O)N2 [Ex. 22] (HELM PEPTIDE1{I.C.T.[Nle].S.D.P.P.I.C.R.[dP].P}$PEPTIDE1,PEPTIDE1,2:R3-10:R3|PEPTIDE1,PEPTIDE1,1:R1-13:R2$$$V2.0)	0%	–	98.8%	3.8%	8000 nM	> 100000 nM	55 nM	5.7%	84. %	–	0%	5 h	5 h
13.8 nM	54.1 at 100%	CCCC[C@@H]1NC(=O)[C@@H]2CCCN2C(=O)[C@H]2CCCN2C(=O)[C@H](Cc2ccc(O)cc2)NC(=O)[C@H]([C@@H](C)O)NC(=O)[C@H](CCC(N)=O)NC(=O)[C@@H]2CCCN2C(=O)[C@@H]2CCCN2C(=O)[C@H]([C@@H](C)CC)NC(=O)[C@H](CO)NC(=O)[C@H](C)NC(=O)[C@H]([C@@H](C)O)NC(=O)[C@H](CCC(N)=O)NC1=O [Ex. 109] (HELM PEPTIDE1{[Nle].Q.T.A.S.I.P.P.Q.T.Y.[dP].P}$PEPTIDE1,PEPTIDE1,1:R1-13:R2$$$V2.0)	–	5.6%	0.1%	–	–	33 nM	–	–	0%	0%	–	–	–
